Values of other authors as cited in patent publication US8398606B2, “Folded perineal pad” (QuantrRx Biomedical Corporation, priority 2007, dated 2013).

Design: dose or concentration left out as unconfirmed
Settings: ILP system releasing of estradiol as its 3-acetate ester, in HRT; maintained level

C[C@]12CC[C@@H]3c4ccc(O)cc4CC[C@H]3[C@@H]1CC[C@@H]2O [estradiol]
circulating plasma concentration of the drug: 300 pmol/L
